This passage reports Kd results from doi:10.1101/350942v2 (biorxiv, 2018).

The target in the assay is Tv2483 (Treponema vincentii, UniProt S3MDF0, R115A). The assay is described as follows: biochemical.

Regarding `N=C(N)NCCC[C@H](N)C(=O)O` [L-arginine], the Kd came out at 6.3 µM.

What is called Kd is the concentration at which binding is half-saturated.
